Laboratory results published in patent US20140186364A1, “INHIBITION OF THE NT-3:TRKC BOUND AND ITS APPLICATION TO THE TREATMENT OF CANCER SUCH AS NEUROBLASTOMA” (CENTRE NATIONAL DE LA RECHERCHE SCIENTIFIQUE (CNRS), priority 2008, published 2014).
Residues, ends and D or L forms follow the SMILES beside them. *: point of attachment. Cbz = O=C(OCc1ccccc1)*; CH2F = FC*

Key:
rat TrkC = biological target: T1, rat TrkC (Rattus norvegicus, UniProt Q03351); assay: TrkC-induced apoptosis in TrkC-transfected HEK293T or 13.S.24 cells (trypan blue, caspase activity, DNA condensation); assay type: cell-based; conditions: for TrkC-induced apoptosis: general caspase inhibitors added after TrkC transfection
T1 construct: We first transiently expressed full-length rat TrkC in HEK293T cells; HA; expressed in transfected cells; host or cells: HEK293T or 13.S.24 olfactory neuroblasts
Method: (§1) Transient transfections of Human Embryonic Kidney 293T and olfactory neuroblasts 13.S.24 cells were performed as previously described (4), by using Lipofectamine Plus (Invitrogen, Carlsbad, Calif.) according to the manufacturer's instructions. HEK293T and 13.S.24 cells where cultured in DMEM (Invitrogen) with the addition of 0.1% gentamycin for 13.S.24 cells. The recombinant human NT-3 was purchased from PreproTech (Rocky Hill, N.J.) and added to the culture medium 3 and 24 h after transfection. TrkC expression was monitored by Western blot with an anti-C-terminal antibody purchased from Santa Cruz Biotechnology (sc-139; Santa Cruz, Calif.), 24 h after transfection. Plasma membrane localisation of Trk receptors was performed by FACS analysis. Briefly, […] cells were transfected and labeled successively with anti-HA antibody (1/100; Sigma, St. Louis, Mo.) and anti-rabbit PE (1/100; Jackson ImmunoResearch Laboratories, West Grove, Pa.). Detection was done using a FACSCalibur (BD Biosciences, San Jose, Calif.).
Cell death was analyzed using trypan blue staining procedures, as previously described (6). Either the z-VAD-fmk (TEBU-bio, Le Perray en Yvelines Cedex, France; […]) or the BAF [Boc-Asp(Ome) Fluoromethyl Ketone; Sigma-Aldrich; […]] caspase inhibitors were added to the culture medium just after transfection. The extent of cell death is presented as the percentage of trypan blue-positive cells in the different transfected cell populations. Relative caspase activity was determined by fluorescence measurement of DEVDAFC cleavage, as described in (8). Immunostaining using anti-caspase-3 antibody (Cell Signaling) was described in (4). […] For flow cytometric analysis, stained cells were counted using a FACSCalibur (BD Biosciences) and CellQuest analysis software with excitation and emission settings of 488 nm and 525-550 nm (filter FL1), respectively.

TrkC [1] = biological target: T2, TrkC (Homo sapiens, UniProt Q16288); assay: Endogenous TrkC cleavage in CLB-Ge2 cells (western blot); assay type: cell-based; set-up: endogenous in cells; host or cells: CLB-Ge2 human neuroblastoma cells
Method: 8×10^4 cells were cytospun on coverslips and fixed in 4% PFA. The slides were then incubated at room temperature for one hour with an antibody recognizing human NT-3 (1/300, SC-547). After rinsing in Phosphate Buffer Saline, the slides were incubated with an Alexa-488-Donkey anti-Rabbit antibody (Molecular Probes). Nucleus were visualized with Hoechst staining (Sigma). Expression of TrkC constructs and endogenous TrkC cleavage were monitored by western blot with anti-Trk antibody (sc-11; Santa Cruz Biotechnology) and an anti […]-actin (13E5; Cell Signaling) was used as loading control as previously described (36).

TrkC [2] = assay: TrkC caspase cleavage in TrkC-expressing 13.S.24 cells (immunoblot); assay type: cell-based, rat; conditions: 13.S.24 cells expressing TrkC; C-terminal TrkC antibody
Method: (§2) To observe the cleavage of TrkC in 13.S.24, MG132 ([…], Z-Leu-Leu-Leuala, Sigma-Aldrich) was added to the culture medium 2 h before harvesting the cells. Cells were then potterised in the Wang buffer (20 mM Hepes KOH/10 mMKCl/1.5 mM MgC12/1 mM Sodium EDTA/1 mM Sodium EGTA/0.1 mM PMSF/1 mM DTT/[…]). Proteins were then analyzed by Western blot using the anti-TrkC antibody (sc-139; Santa Cruz Biotechnology). To monitor TrkC cleavage in vivo, E10.5 OF1 mouse embryos were dissected with a sharpened tungsten needle to isolate the spinal cord, the somites and DRG precursors which were then semidissociated in DMEM F-12 (Invitrogen). The samples were incubated overnight under agitation at 37° C. in the presence or absence of either NT-3 (PreproTech; 10 ng/ml), or BAF (Sigma-Aldrich; […]), or the NT-3 blocking antibody AF1404 (R&D, Minneapolis, Minn.; 1/100). The samples were then lysed directly in the Laemmli sample buffer and the proteins separated on 12% SDS/PAGE. The filter was probed with the anti-TrkC antibody.

TrkC [3] = biological target: T3, TrkC (Mus musculus, UniProt Q6VNS1); assay: TrkC cleavage in semidissociated embryonic mouse DRG (Western blot); assay type: cell-based; conditions: DRG maintained overnight; NT-3 10 ng/ml
T3 construct: embryonic mouse dorsal root ganglion (DRG) were semidissociated and maintained overnight; from tissue; host or cells: spinal cord, somites and DRG precursors of E10.5 OF1 mouse embryos, semidissociated
Method: as §2

TrkC [4] = biological target: T2, TrkC; assay: Human TrkC-induced cell death in transfected 13.S.24 cells (active caspase-3); assay type: cell-based; set-up: expressed in transfected cells; host or cells: 13.S.24 olfactory neuroblasts; conditions: NT-3 10 ng/ml
Method: as §1, with “Detection was done using a FACSCalibur (BD Biosciences, San Jose, Calif.).” left out
Cell death was analyzed using trypan blue staining procedures, as previously described (6). […] Relative caspase activity was determined by fluorescence measurement of DEVDAFC cleavage, as described in (8). […] For flow cytometric analysis, stained cells were counted using a FACSCalibur (BD Biosciences) and CellQuest analysis software with excitation and emission settings of 488 nm and 525-550 nm (filter FL1), respectively.

T1 sequence (Q03351 32-825 isoform Q03351-2 limits assumed): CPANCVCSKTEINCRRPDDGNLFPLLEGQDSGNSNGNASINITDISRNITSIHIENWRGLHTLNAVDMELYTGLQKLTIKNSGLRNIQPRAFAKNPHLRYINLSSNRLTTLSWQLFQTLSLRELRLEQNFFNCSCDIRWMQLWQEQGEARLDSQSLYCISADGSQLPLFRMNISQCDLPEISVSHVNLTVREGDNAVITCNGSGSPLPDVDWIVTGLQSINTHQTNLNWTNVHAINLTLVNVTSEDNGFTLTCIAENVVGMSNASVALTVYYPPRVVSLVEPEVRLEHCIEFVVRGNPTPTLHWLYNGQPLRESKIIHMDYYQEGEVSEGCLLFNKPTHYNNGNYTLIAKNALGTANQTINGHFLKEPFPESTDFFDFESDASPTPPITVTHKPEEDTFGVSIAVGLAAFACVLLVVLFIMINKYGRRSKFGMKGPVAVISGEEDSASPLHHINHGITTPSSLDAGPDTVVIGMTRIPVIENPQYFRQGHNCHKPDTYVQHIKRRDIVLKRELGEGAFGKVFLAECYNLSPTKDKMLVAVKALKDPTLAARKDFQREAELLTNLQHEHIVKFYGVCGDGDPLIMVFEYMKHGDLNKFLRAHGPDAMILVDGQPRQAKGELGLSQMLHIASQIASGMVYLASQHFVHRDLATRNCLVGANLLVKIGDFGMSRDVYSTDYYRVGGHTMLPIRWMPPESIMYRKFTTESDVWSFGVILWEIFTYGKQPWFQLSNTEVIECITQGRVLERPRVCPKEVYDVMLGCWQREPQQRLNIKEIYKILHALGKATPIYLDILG
T2 sequence (Q16288 32-839): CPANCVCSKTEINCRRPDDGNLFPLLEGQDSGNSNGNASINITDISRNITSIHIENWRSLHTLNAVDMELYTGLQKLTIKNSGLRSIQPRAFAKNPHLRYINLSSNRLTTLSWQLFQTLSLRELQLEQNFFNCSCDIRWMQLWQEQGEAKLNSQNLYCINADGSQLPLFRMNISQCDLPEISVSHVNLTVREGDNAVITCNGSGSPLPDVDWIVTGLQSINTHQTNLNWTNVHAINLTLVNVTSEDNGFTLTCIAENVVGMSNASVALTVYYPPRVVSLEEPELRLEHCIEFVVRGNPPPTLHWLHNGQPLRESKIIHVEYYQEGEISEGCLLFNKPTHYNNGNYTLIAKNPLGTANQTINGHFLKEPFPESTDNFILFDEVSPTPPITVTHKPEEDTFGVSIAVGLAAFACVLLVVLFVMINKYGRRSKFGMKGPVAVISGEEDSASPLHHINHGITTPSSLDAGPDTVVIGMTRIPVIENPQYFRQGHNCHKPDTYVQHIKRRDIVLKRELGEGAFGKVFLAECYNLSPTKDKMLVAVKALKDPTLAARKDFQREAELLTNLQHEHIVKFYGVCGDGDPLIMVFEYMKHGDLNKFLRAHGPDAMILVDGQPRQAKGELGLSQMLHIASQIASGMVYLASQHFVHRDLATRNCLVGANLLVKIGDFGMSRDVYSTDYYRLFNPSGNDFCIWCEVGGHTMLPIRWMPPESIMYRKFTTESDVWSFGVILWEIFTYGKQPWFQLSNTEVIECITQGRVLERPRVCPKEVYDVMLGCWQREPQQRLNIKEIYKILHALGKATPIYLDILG
T3 sequence (Q6VNS1 32-825): as the sequence (Q03351 32-825 isoform Q03351-2 limits assumed) above

Row | TrkC caspase cleavage (20 kDa band) (TrkC [1]) | Molecule | TrkC-induced apoptosis (rat TrkC) | TrkC cleavage bands (35 and 20 kDa) (TrkC [2]) | 20-kDa TrkC fragment (TrkC [3]) | TrkC-mediated cell death (trypan blue exclusion, caspase activity, DNA condensation) (rat TrkC; rat TrkC-transfected 13.S.24 cells, NT-3 0.5-50 ng/ml) | human TrkC-triggered cell death (TrkC [4])
1 | blocked | COC(=O)CC(NC(=O)OC(C)(C)C)C(=O)CF (stereo not shown) [BAF, boc-aspartyl(OMe)-fluoromethylketone] | fully inhibit TrkC-induced apoptosis | failed to be detected | disappeared |  | 
2 |  | COC(=O)CC[C@H](NC(=O)[C@H](CC(=O)OC)NC(=O)OCc1ccccc1)C(=O)N[C@H](C(=O)N[C@@H](CC(=O)OC)C(=O)CF)C(C)C [DEVD-fmk] |  | fail to block caspase-dependent cleavage of TrkC |  |  | 
3 |  | COC(=O)C[C@H](NC(=O)[C@H](C)NC(=O)[C@@H](NC(=O)OCc1ccccc1)C(C)C)C(=O)CF [zVAD-fmk] (Cbz-Val-Ala-Asp(OMe)-CH2F) | fully inhibit TrkC-induced apoptosis | failed to be detected |  |  | 
4 |  | NT-3: recombinant human NT-3 purchased from PreproTech; ligand of TrkC |  |  | disappeared | inhibited, in a dose-dependent manner | triggers cell death unless NT-3 is present
